Data taken from US12661345B2, “Compositions for the treatment of hypertension” (The George Institute for Global Health, priority 2017, dated 2026).

System: participants with migraine
Experiment: Safety: serious adverse events and adverse events of special interest in the 3×3 factorial trial
[1] = Anytime between Week 0 to Week 12, % of participants
[2] = Anytime between Week 0 to Week 12, n/N participants
[3] = Randomization, % of participants
[4] = Randomization, n/N participants

Text: Tolerability: • a. Difference between groups in potentially related side-effects (dizziness, blurred vision, syncope/collapse/fall, ankle edema, skin rash, itching, gout, hyperkalemia, hypokalemia, hyponatremia, myalgia, insomnia, nightmares, rebound hypertension) • b. Difference between groups in participant withdrawals from treatment • 2. Safety: Percentage with any severe adverse event (SAE) • 3.
All participants reported SAEs and adverse events of special interest (AESI) from the time of informed consent until the end of the follow-up period and reported in the case report. AESIs included: • Dizziness • Hypotension • Pedal Edema • Headache • Muscle cramps • Bradycardia • Flushing • Hypersensitivity reactions (skin rashes, itching) • Gastrointestinal complaints • Myalgia • Syncope/Collapse/Fall • Gout • Insomnia • Nightmares • Rebound hypertension • Chest tightness/pain • Tremor/shaking • Irregular heartbeat/tachycardia Statistical Methods Statistical & Analytical Plans

SMILES: CC(C)NCC(O)COc1cccc2ccccc12 (stereo not shown) [Propranolol, propranolol]
- Subjects with any serious adverse event (SAE) in 12 weeks (n/N) (12 weeks): 0/10
- Subjects with any serious adverse event (SAE) in 12 weeks (percent) (12 weeks): 0.0%
- Any SAEs [1]: (0.0%)
- Bradycardia [1]: (10.0%)
- Falls [1]: (0.0%)
- Flushing [1]: (0.0%)
- Gastrointestinal complaints [1]: (30.0%)
- Gout [1]: (0.0%)
- Headache [1]: (90.0%)
- Insomnia [1]: (40.0%)
- Muscle cramps [1]: (30.0%)
- Myalgia [1]: (20.0%)
- Nightmares [1]: (10.0%)
- Pedal edema [1]: (0.0%)
- Syncope [1]: (10.0%)
- Any SAEs [2]: 0/10
- Bradycardia [2]: 1/10
- Falls [2]: 0/10
- Flushing [2]: 0/10
- Gastrointestinal complaints [2]: 3/10
- Gout [2]: 0/10
- Headache [2]: 9/10
- Insomnia [2]: 4/10
- Muscle cramps [2]: 3/10
- Myalgia [2]: 2/10
- Nightmares [2]: 1/10
- Pedal edema [2]: 0/10
- Syncope [2]: 1/10
- Any SAEs since the last visit? [3]: (0.0%)
- Bradycardia [3]: (0.0%)
- Falls [3]: (0.0%)
- Flushing [3]: (10.0%)
- Gastrointestinal complaints [3]: (0.0%)
- Gout [3]: (0.0%)
- Headache [3]: (100.0%)
- Insomnia [3]: (0.0%)
- Muscle cramps [3]: (0.0%)
- Myalgia [3]: (0.0%)
- Nightmares [3]: (0.0%)
- Pedal edema [3]: (0.0%)
- Syncope [3]: (0.0%)
- Any SAEs since the last visit? [4]: 0/10
- Bradycardia [4]: 0/10
- Falls [4]: 0/10
- Flushing [4]: 1/10
- Gastrointestinal complaints [4]: 0/10
- Gout [4]: 0/10
- Headache [4]: 10/10
- Insomnia [4]: 0/10
- Muscle cramps [4]: 0/10
- Myalgia [4]: 0/10
- Nightmares [4]: 0/10
- Pedal edema [4]: 0/10
- Syncope [4]: 0/10
- Any SAEs since the last visit? (Week 4, % of participants): (0.0%)
- Bradycardia (Week 4, % of participants): (0.0%)
- Falls (Week 4, % of participants): (0.0%)
- Flushing (Week 4, % of participants): (0.0%)
- Gastrointestinal complaints (Week 4, % of participants): (20.0%)
- Gout (Week 4, % of participants): (0.0%)
- Headache (Week 4, % of participants): (90.0%)
- Insomnia (Week 4, % of participants): (20.0%)
- Muscle cramps (Week 4, % of participants): (10.0%)
- Myalgia (Week 4, % of participants): (10.0%)
- Nightmares (Week 4, % of participants): (0.0%)
- Pedal edema (Week 4, % of participants): (0.0%)
- Syncope (Week 4, % of participants): (0.0%)
- Any SAEs since the last visit? (Week 4, n/N participants): 0/10
- Bradycardia (Week 4, n/N participants): 0/10
- Falls (Week 4, n/N participants): 0/10
- Flushing (Week 4, n/N participants): 0/10
- Gastrointestinal complaints (Week 4, n/N participants): 2/10
- Gout (Week 4, n/N participants): 0/10
- Headache (Week 4, n/N participants): 9/10
- Insomnia (Week 4, n/N participants): 2/10
- Muscle cramps (Week 4, n/N participants): 1/10
- Myalgia (Week 4, n/N participants): 1/10
- Nightmares (Week 4, n/N participants): 0/10
- Pedal edema (Week 4, n/N participants): 0/10
- Syncope (Week 4, n/N participants): 0/10
- Any SAEs since the last visit? (Week 8, % of participants): (0.0%)
- Bradycardia (Week 8, % of participants): (0.0%)
- Falls (Week 8, % of participants): (0.0%)
- Flushing (Week 8, % of participants): (0.0%)
- Gastrointestinal complaints (Week 8, % of participants): (0.0%)
- Gout (Week 8, % of participants): (0.0%)
- Headache (Week 8, % of participants): (80.0%)
- Insomnia (Week 8, % of participants): (30.0%)
- Muscle cramps (Week 8, % of participants): (0.0%)
- Myalgia (Week 8, % of participants): (10.0%)
- Nightmares (Week 8, % of participants): (0.0%)
- Pedal edema (Week 8, % of participants): (0.0%)
- Syncope (Week 8, % of participants): (0.0%)
- Any SAEs since the last visit? (Week 8, n/N participants): 0/10
- Bradycardia (Week 8, n/N participants): 0/10
- Falls (Week 8, n/N participants): 0/10
- Flushing (Week 8, n/N participants): 0/10
- Gastrointestinal complaints (Week 8, n/N participants): 0/10
- Gout (Week 8, n/N participants): 0/10
- Headache (Week 8, n/N participants): 8/10
- Insomnia (Week 8, n/N participants): 3/10
- Muscle cramps (Week 8, n/N participants): 0/10
- Myalgia (Week 8, n/N participants): 1/10
- Nightmares (Week 8, n/N participants): 0/10
- Pedal edema (Week 8, n/N participants): 0/10
- Syncope (Week 8, n/N participants): 0/10
- Any SAEs since the last visit? (Week 12, % of participants): (0.0%)
- Bradycardia (Week 12, % of participants): (10.0%)
- Falls (Week 12, % of participants): (0.0%)
- Flushing (Week 12, % of participants): (0.0%)
- Gastrointestinal complaints (Week 12, % of participants): (10.0%)
- Gout (Week 12, % of participants): (0.0%)
- Headache (Week 12, % of participants): (80.0%)
- Insomnia (Week 12, % of participants): (20.0%)
- Muscle cramps (Week 12, % of participants): (20.0%)
- Myalgia (Week 12, % of participants): (0.0%)
- Nightmares (Week 12, % of participants): (10.0%)
- Pedal edema (Week 12, % of participants): (0.0%)
- Syncope (Week 12, % of participants): (10.0%)
- Any SAEs since the last visit? (Week 12, n/N participants): 0/10
- Bradycardia (Week 12, n/N participants): 1/10
- Falls (Week 12, n/N participants): 0/10
- Flushing (Week 12, n/N participants): 0/10
- Gastrointestinal complaints (Week 12, n/N participants): 1/10
- Gout (Week 12, n/N participants): 0/10
- Headache (Week 12, n/N participants): 8/10
- Insomnia (Week 12, n/N participants): 2/10
- Muscle cramps (Week 12, n/N participants): 2/10
- Myalgia (Week 12, n/N participants): 0/10
- Nightmares (Week 12, n/N participants): 1/10
- Pedal edema (Week 12, n/N participants): 0/10
- Syncope (Week 12, n/N participants): 1/10
- Any SAEs since the last visit? (Week 13, % of participants): (0.0%)
- Bradycardia (Week 13, % of participants): (0.0%)
- Falls (Week 13, % of participants): (0.0%)
- Flushing (Week 13, % of participants): (0.0%)
- Gastrointestinal complaints (Week 13, % of participants): (20.0%)
- Gout (Week 13, % of participants): (0.0%)
- Headache (Week 13, % of participants): (90.0%)
- Insomnia (Week 13, % of participants): (0.0%)
- Muscle cramps (Week 13, % of participants): (20.0%)
- Myalgia (Week 13, % of participants): (20.0%)
- Nightmares (Week 13, % of participants): (0.0%)
- Pedal edema (Week 13, % of participants): (10.0%)
- Rebound hypertension (Week 13, % of participants): (0.0%)
- Syncope (Week 13, % of participants): (0.0%)
- Any SAEs since the last visit? (Week 13, n/N participants): 0/10
- Bradycardia (Week 13, n/N participants): 0/10
- Falls (Week 13, n/N participants): 0/10
- Flushing (Week 13, n/N participants): 0/10
- Gastrointestinal complaints (Week 13, n/N participants): 2/10
- Gout (Week 13, n/N participants): 0/10
- Headache (Week 13, n/N participants): 9/10
- Insomnia (Week 13, n/N participants): 0/10
- Muscle cramps (Week 13, n/N participants): 2/10
- Myalgia (Week 13, n/N participants): 2/10
- Nightmares (Week 13, n/N participants): 0/10
- Pedal edema (Week 13, n/N participants): 1/10
- Rebound hypertension (Week 13, n/N participants): 0/10
- Syncope (Week 13, n/N participants): 0/10
- Any SAEs since the last visit? (Week 16, % of participants): (0.0%)
- Bradycardia (Week 16, % of participants): (0.0%)
- Falls (Week 16, % of participants): (0.0%)
- Flushing (Week 16, % of participants): (0.0%)
- Gastrointestinal complaints (Week 16, % of participants): (0.0%)
- Gout (Week 16, % of participants): (0.0%)
- Headache (Week 16, % of participants): (100.0%)
- Insomnia (Week 16, % of participants): (0.0%)
- Irregular heartbeat/tachycardia (Week 16, % of participants): (10.0%)
- Muscle cramps (Week 16, % of participants): (10.0%)
- Myalgia (Week 16, % of participants): (0.0%)
- Nightmares (Week 16, % of participants): (0.0%)
- Pedal edema (Week 16, % of participants): (0.0%)
- Rebound hypertension (Week 16, % of participants): (20.0%)
- Syncope (Week 16, % of participants): (0.0%)
- Any SAEs since the last visit? (Week 16, n/N participants): 0/10
- Bradycardia (Week 16, n/N participants): 0/10
- Falls (Week 16, n/N participants): 0/10
- Flushing (Week 16, n/N participants): 0/10
- Gastrointestinal complaints (Week 16, n/N participants): 0/10
- Gout (Week 16, n/N participants): 0/10
- Headache (Week 16, n/N participants): 10/10
- Insomnia (Week 16, n/N participants): 0/10
- Irregular heartbeat/tachycardia (Week 16, n/N participants): 1/10
- Muscle cramps (Week 16, n/N participants): 1/10
- Myalgia (Week 16, n/N participants): 0/10
- Nightmares (Week 16, n/N participants): 0/10
- Pedal edema (Week 16, n/N participants): 0/10
- Rebound hypertension (Week 16, n/N participants): 2/10
- Syncope (Week 16, n/N participants): 0/10
